According to PMC2121212 (The Journal of Experimental Medicine, 2006):
No end group written: not given here.

Tests used:
[1] = tested on: CD4 T cell response; details: in vivo response to variant when encoded in MalE (Fig. 4); ref [28]; cited from earlier work
[2] = tested on: antigen-specific T cell hybridomas stimulated by APCs that do or do not express DM; format: cell-based, murine; details: for DM enhancement (fold DM effect): overnight, CTLL/MTT read-out
[3] = tested on: additional HEL [11–25]–specific and LACK [156–173]–specific T cell hybridomas; assay: Presentation to additional independently derived T cell hybridomas; format: cell-based, murine; details: compared with original T cells
[4] = molecular target: T1, I-A^d (Mus musculus, UniProt P01921+P04228); format: binding, murine
T1 sequence (P04228 24-111 limits assumed): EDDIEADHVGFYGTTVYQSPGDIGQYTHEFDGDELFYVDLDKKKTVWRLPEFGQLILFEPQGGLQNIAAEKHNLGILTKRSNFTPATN
T1 sequence (P01921 28-122 limits assumed): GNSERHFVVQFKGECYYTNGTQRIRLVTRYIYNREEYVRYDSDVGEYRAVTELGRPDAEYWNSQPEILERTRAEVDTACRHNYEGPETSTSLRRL

[5] = tested on: antigen-specific T cells stimulated by APCs that do or do not express DM; assay: Presentation from native protein versus MalE; format: cell-based, murine; details: native protein vs MalE (Fig. S1)

Substance: T128M: high stability HA variant T128M (HNMNGVTAACSHE)
- Immunogenicity of variant encoded in MalE [1]: immunogenic

Substance: T128Q: kinetic stability variant of HA [126–138] (HNQNGVTAACSHE)
- Immunogenicity of variant encoded in MalE [1]: immunogenic
- DM enhancement (fold DM effect) [2]: 3.5 ± 0.7 fold

Substance: T128V, S136T: kinetic stability variant of HA [126–138] (HNVNGVTAACTHE)
- Immunogenicity of variant encoded in MalE [1]: cryptic

Substance: T128G: HA [126–138] P1 substitution (T128G) (HNGNGVTAACSHE)
- Immunogenicity of variant encoded in MalE [1]: cryptic

Substance: V131A: HA [126–138] P4 substitution (V131A) (HNTNGATAACSHE)
- Immunogenicity of variant encoded in MalE [1]: cryptic

Substance: R14Q, N19A, G22S: triple substitution HEL [11–25] variant (AMKQHGLDAYRSYSL; also: fluorescein (FITC) label, position not given here)
- DM enhancement (fold DM effect) [2]: 29.7 ± 7.6 fold
- DM effect detected by additional T cell hybridomas [3]: confirmed this effect on the efficiency of presentation pattern with two additional, independently derived HEL [11–25]–specific hybridomas
- Increase in kinetic stability [4]: threefold

Substance: HEL [11-25]: cryptic epitope derived from HEL, which has an unstable interaction with class II molecules (AMKRHGLDNYRGYSL; also: fluorescein (FITC) label, position not given here) [reference compound]
- Fold more protein required on APCs expressing DM (antagonism) [2]: ~10 fold
- Influence of protein context on DM-mediated presentation [5]: independent of the protein context from which the peptide epitope is derived

Substance: HA [126–138]: derived from the influenza hemagglutinin molecule (HNTNGVTAACSHE) [reference compound]
- Presentation of synthetic peptide pulsed on DM^+ vs DM^− APCs ([2]; APCs pulsed with peptide instead of protein (Fig. 1 G, H; Fig. 2 B)): equivalent
- Effect of DM expression on presentation ([2]; epitope encoded within MalE, DM^+ vs DM^− APCs (Figs. 1 and 2, Table II)): modestly antagonized
